Laboratory results from PMC9561728, “Safety and efficacy of a GLP-1 and glucagon receptor dual agonist mazdutide (IBI362) 9 mg and 10 mg in Chinese adults with overweight or obesity: A randomised, placebo-controlled, multiple-ascending-dose phase 1b trial” (eClinicalMedicine, 2022).

How the values were obtained:
[1] = tested on: Chinese adults with overweight or obesity; assay: HbA1c and metabolic parameters, phase 1b trial; assay type: in vivo, human
Description: (§1) Secondary outcomes included pharmacokinetics, assessed by maximum observed plasma concentration (Cmax), time at which Cmax was observed (Tmax), terminal elimination half-life (t½), and area under the curve from time zero to 168 h after the first dose (AUC0–168 h) and immunogenicity, assessed by titters of anti-drug antibodies (ADAs) and neutralizing antibodies. Secondary efficacy outcomes included the change from baseline to week 12 (9 mg cohort) or week 16 (10 mg cohort) in body weight, waist circumference, BMI, as well as the change from baseline in HbA1c, lipids, transaminase and serum uric acid levels.
Summaries for other efficacy and safety variables included descriptive statistics for continuous measures (mean and standard deviation or standard error) and for categorical measures (sample size, frequency and percentages).

[2] = tested on: Chinese adults with overweight or obesity; assay: Change from baseline in body weight, BMI and waist circumference (MMRM), phase 1b trial; assay type: in vivo, human; conditions: for Participants who achieved 10% body weight loss or more / Participants who achieved 15% body weight loss or more: during the study; for Participants who achieved 10% body weight loss or more / Participants who achieved 15% body weight loss or more / CFB in BMI / CFB in body weight / CFB in waist circumference / Percent CFB in body weight: n = 8
Description: as §1
The sample size of 12 participants per cohort was empirically determined to provide preliminary safety, tolerability, pharmacokinetics data while minimizing the number of participants. No formal hypothesis testing was planned. Participants receiving placebo were pooled for analysis on the change from baseline in body weight, waist circumference and BMI.
The analyses for the change from baseline in body weight, waist circumference and BMI were performed using mixed-effect model for repeated measures (MMRM), with least squares mean change or mean percent change from baseline at each follow-up time analysed using a restricted maximum likelihood (REML)‐based repeated measures approach in combination with the Newton Raphson Algorithm. The MMRM included the corresponding baseline value, treatment, visit and treatment-by-visit as fixed effects and patient as a random effect, with an unstructured covariance matrix used. In case of non-converge, matrix like Variance Components and Compound Symmetry will be tested in a subsequent order until model‐convergence is achieved. The Kenward-Roger degree of freedom was used in estimating fixed effects. No missing data imputation was conducted. Point estimate of treatment difference versus placebo at week 12 for the 9 mg cohort and at week 16 for the 10 mg cohort were provided, together with corresponding 95% CI and nominal p value.

[3] = Isoelectric point (PI) of the study drug; assay type: physicochemical; conditions: study protocol
Description: 5.2.1 Physical and chemical characteristi cs of the study drug
Molecular Weight: 4560.32 Daltons
Description: White to off-white powder
Solubility: Solvent: 20 mM Tris buffer at pH 8.0 and 150 mM sodium chloride.
Solubility: Not less than 10 mg/mL at 25 ℃.
5.2.2 Study Drug Strength and Manufacturer
The IB I362 dru g produ ct is IBI362 for injection an d consists of 2 mg IB I362 and the […]
contents are reconstituted with sterile water for injection to obtain a clear solution of […]
ingredients tris (hydroxymethyl) aminomethane, mannitol, and sucrose." The vial contents are reconstituted with sterile water for injection to obtain a clear solution devoid […]
The dru g product stren gt h used in this stud y was 2 mg/vial, and the placebo strengt h matched the drug product and was provided b y the Sponsor.
The drug product and placebo should be stored under refrigerated conditions (2 ℃ […]
5.2.4 Mode of administration
Both IBI362 and placebo will be administered by subcutaneous injection once a week. Each dose should be prepared and injected by the stud y nurse. See the Instructions for Use fo rdetails of the preparation and use of the study drug.
5.3.1 Prohibited Medications
The following m edicatio ns and measur es ar e cont raindicated:
1. Growth hormone and its analogues;
2. Any systemic corticosteroid (including intravenous, oral, intra-articular) administered for ≥ 7 da ys. […]

[4] = tested on: Chinese adults with overweight or obesity; assay: Immunogenicity: anti-drug antibodies and neutralizing antibodies, phase 1b trial; assay type: in vivo, human; conditions: for Participants who developed treatment-induced anti-mazdutide antibodies: n = 8
Description: as §1

[5] = tested on: Chinese adults with overweight or obesity; conditions: low dose cohorts; cited from earlier work
Description: Summary Background Mazdutide (also known as IBI362 or LY3305677), a novel once-weekly glucagon-like peptide-1 (GLP-1) and glucagon receptor dual agonist, achieved 12-week body weight loss up to 6.4% at doses up to 6 mg in Chinese adults with overweight or obesity. We further explored the safety and efficacy of mazdutide dosed up to 9 mg and 10 mg. Methods In this randomised, placebo-controlled, multiple-ascending-dose phase 1b trial, we enrolled adults (aged 18-75 years, both inclusive) with overweight (body-mass index [BMI] ≥24 kg/m^2) accompanied by hyperphagia and/or at least one obesity-re ... || A PubMed search on July 4, 2022, with the terms “glucagon-like peptide-1″, [AND] “glucagon receptor”, [AND] “dual agonist”, in the Title or Abstract yielded 31 results. […] Mazdutide dosed up to 6 mg achieved 12-week mean body weight loss up to 6.4% in Chinese adults with overweight or obesity. || Mazdutide (also known as IBI362 or LY3305677) is a once-weekly mammalian oxyntomodulin analogue. […] In a phase 1b clinical trial in Chinese adults with overweight or obesity, mazdutide dosed up to 6 mg achieved 12-week mean body weight loss up to 6.4%.[11] Given the favourable safety profile and the robust body weight loss achieved in the low-dose cohort ... || (+ 2 further places)

[6] = 9 mg cohort, week 12, LS mean (SE), MMRM
[7] = 9 mg cohort, week 12, estimate (95% CI), MMRM
[8] = 10 mg cohort, week 16, LS mean (SE), MMRM
[9] = 10 mg cohort, week 16, estimate (95% CI), MMRM

In the case of `CC(C)C[C@H](NC(=O)[C@H](CC(C)C)NC(=O)[C@H](Cc1c[nH]c2ccccc12)NC(=O)[C@H](CCC(=O)O)NC(=O)[C@@H](NC(=O)[C@H](Cc1ccccc1)NC(=O)[C@H](CCC(=O)O)NC(=O)[C@H](CCCCNC(=O)COCCOCCNC(=O)COCCOCCNC(=O)CC[C@H](NC(=O)CCCCCCCCCCCCCCCCCCC(=O)O)C(=O)O)NC(=O)[C@H](C)NC(=O)[C@H](CCCCN)NC(=O)[C@H](CCCCN)NC(=O)[C@H](CCC(=O)O)NC(=O)[C@H](CC(=O)O)NC(=O)[C@H](CC(C)C)NC(=O)[C@H](Cc1ccc(O)cc1)NC(=O)[C@H](CCCCN)NC(=O)[C@H](CO)NC(=O)[C@H](Cc1ccc(O)cc1)NC(=O)[C@H](CC(=O)O)NC(=O)[C@H](CO)NC(=O)[C@@H](NC(=O)[C@H](Cc1ccccc1)NC(=O)[C@@H](NC(=O)CNC(=O)[C@H](CCC(N)=O)NC(=O)C(C)(C)NC(=O)[C@@H](N)Cc1c[nH]cn1)[C@@H](C)O)[C@@H](C)O)C(C)C)C(=O)N[C@@H](CCC(=O)O)C(=O)NCC(=O)NCC(=O)N1CCC[C@H]1C(=O)N[C@@H](CO)C(=O)N[C@@H](CO)C(=O)NCC(N)=O` [Mazdutide], the “Participants with a 0.4% HbA1c reduction from baseline” value ([1]; 10 mg cohort, week 16, participants without type 2 diabetes) is reported as “two”, the “Metabolic parameters including triglycerides, low density lipoprotein cholesterol, total cholesterol and serum uric acid” value ([1]; both dose regimens, compared with placebo) is reported as “Greater improvements” and the “Non-diabetic participants with slight elevation in end-of-treatment HbA1c levels” value ([1]; high-dose cohorts) is reported as “two”. The “Participants who achieved 10% body weight loss or more” value ([2]; 9 mg cohort) was 50%, the “Participants who achieved 15% body weight loss or more” value ([2]; 9 mg cohort) was 25% and the “CFB in BMI” value [2, 6] was −3.51 (0.46) kg/m^2. The “CFB in body weight” value [2, 6] was −9.23 (1.2) kg, the “CFB in waist circumference” value [2, 6] was −5.79 (1.45) cm and the “Percent CFB in body weight” value [2, 6] was −11.7 (1.5) %. The “CFB in BMI, ETD versus pooled placebo” value [2, 7] was −2.96 (−4.37, −1.54) kg/m^2, the “CFB in body weight, ETD versus pooled placebo” value [2, 7] was −7.65 (−11.32, −3.98) kg and the “CFB in waist circumference, ETD versus pooled placebo” value [2, 7] was −5.15 (−9.63, −0.67) cm. For the same molecule, the “Percent CFB in body weight, ETD versus pooled placebo” value [2, 7] was −9.8 (−14.4, −5.3) %, the “Participants who achieved 10% body weight loss or more” value ([2]; 10 mg cohort) was 50% and the “Participants who achieved 15% body weight loss or more” value ([2]; 10 mg cohort) was 25%. The “CFB in BMI” value [2, 8] was −2.96 (0.56) kg/m^2, the “CFB in body weight” value [2, 8] was −7.62 (1.39) kg and the “CFB in waist circumference” value [2, 8] was −3.36 (1.59) cm. For the same molecule, the “Percent CFB in body weight” value [2, 8] was −9.5 (1.7) %, the “CFB in BMI, ETD versus placebo” value [2, 9] was −1.89 (−3.63, −0.15) kg/m^2 and the “CFB in body weight, ETD versus placebo” value [2, 9] was −4.76 (−9.10, −0.43) kg. For the same molecule, the “CFB in waist circumference, ETD versus placebo” value [2, 9] was −1.18 (−7.65, 5.29) cm, the “Percent CFB in body weight, ETD versus placebo” value [2, 9] was −6.2 (−11.5, −0.9) % and the PI [3] was 5.2. For the same molecule, the “Participants who developed treatment-induced anti-mazdutide antibodies” value ([4]; 9 mg cohort) was “Two”, the “Participants who developed treatment-induced anti-mazdutide antibodies” value ([4]; 10 mg cohort) was “four” and the “Participants who developed neutralizing antibodies” value ([4]; 10 mg cohort, attenuated cAMP generation in CHO cells over-expressing human recombinant glucagon receptors) was “One”. The “Incidence of abdominal distension” value [5] was 12.5%, the Incidence of diarrhoea [5] was 37.5% and the Incidence of nausea [5] was “up to 37.5%”. The Incidence of vomiting [5] was 12.5%.
